Results reported in patent publication US20250041261A1, “METHODS AND COMPOSITIONS FOR TREATING MELANOMA” (INSTITUT NATIONAL DE LA SANTÉ ET DE LA RECHERCHE MÉDICALE, priority 2021, published 2025).
Entries after “also recorded” stand apart in the source; their conditions may differ.

Tests used:
[1] = tested on: Primary (MP46) or metastatic (OMM1, OMM2.5, OMM1.3) uveal melanoma cells; assay: PrestoBlue proliferation/survival assay (FIG. 7); assay type: cell-based, human; conditions: MP46, OMM1, OMM2.5, OMM1.3, increasing concentrations, 72 h
Description: FIG. 7: Primary (MP46) or metastatic (OMM1, OMM2.5, OMM1.3) uveal melanoma cells were seeded at 3000 cells/well in a 96 well plate and treated with increasing concentrations of salinomycin, AM23 or AM5. After 72 h of incubation, cells were treated with PrestoBlue reagent according to manufacture instructions. The absorbance per well was measured with a microplate reader. The data were then analyzed using Prism8. Histograms bars represent the average of three replicates #standard error of the mean (s.e.m).

[2] = tested on: primary uveal melanoma cells (MP46 and MP65) or metastatic uveal melanoma cells (OMM1.3) expressing or not BAP1; assay: Colony formation assay; assay type: cell-based, human; conditions: MP46, MP65, OMM1.3, whether BAP1 is expressed or not; 7 days
Text: FIG. 6: Colony formation assay of primary uveal melanoma cells (MP46 and MP65) or metastatic uveal melanoma cells (OMM1.3) expressing or not BAP1 after seeding them for 7 days upon treatment with the drugs indicated on the figure. Representative wells are shown.

[3] = tested on: Uveal melanoma cells (OMM1.3, MM28, MP46, MP65); assay: Cell survival assay (PrestoBlue), 2D-cultures; assay type: cell-based, human; conditions: increasing concentrations, PrestoBlue after 96 h / 72 h
Description: Uveal melanoma cells (OMM1.3, MM28, MP46, MP65) were seeded at 5,000 cells/well in a 96-well plate and treated with increasing concentrations of AM23, salinomycin or staurosporine as positive control as indicated on the figure. The condition “milieu RPMI” represents medium without cells. After 96 h of incubation, cells were incubated with PrestoBlue reagent according to manufacture instructions. The absorbance per well was measured with a microplate reader. The data were then analyzed using excel.
Uveal melanoma cells were seeded at 5,000 cells/well in a 96-well plate and treated with salinomycin or ironomycin as well as a positive control (staurosporin, 500 nM). After 72 h of incubation, cells were treated with PrestoBlue reagent according to manufacture instructions (Thermofisher). The absorbance per well was measured with a microplate reader. The data were then analyzed using excel software.
Uveal melanoma cells are known to hardly enter into apoptosis in response to treatments. Thus, we investigated the effects of salinomycin (Sal) and its derivate called ironomycin (AM23) that have been shown, in different cancer cells, to trigger ferroptosis, a type of cell death based on accumulation of iron into lysosomes and subsequent lysosomal membrane permeabilization. We treated a panel of uveal melanoma cells, i.e the human metastatic OMM1.3 (BAP1+) and MM28 (BAP1+) cells, and the human primary MP46 (BAP1−) and MP65 (BAP1−) cells, with Sal or its derivate AM23 to determine if these drugs can represent potential therapeutic options.

[4] = tested on: MP46 and OMM1.3 human uveal melanoma cells; assay: Fe (ii) detection in lysosomes with RhoNox-M fluorescent probe; assay type: cell-based; conditions: AM23 30 nM or 100 nM, salinomycin 0.5 mM, 48 h, then RhoNox-M 1 h, compared to control cells
Description: A. MP46 and B. OMM1.3 human uveal melanoma cells were seeded at 5000 cells/well on a glass coverslip and were treated with DMSO (Ctl), AM23 (30 nM or 100 nM) or salinomycin (0.5 mM) for 48 h and then with RhoNox-M for 1 h for Fe 2+ detection. Representative confocal fluorescence microscopy images.
To assess whether AM23 triggers lysosomal iron accumulation, we evaluated whether endocytic vesicles contained Fe (ii) as previously reported. To this aim, the Fe (ii)-specific turn-on fluorescent probe RhoNox-M, which can detect the presence of Fe (ii) in lysosomes, was used. […] In response to the ensuing cytoplasmic depletion of iron, cells triggered in lysosomes the degradation of ferritin, which stores cellular iron, leading to further iron loading in this organelle.

ferritin = assay: Western blot of ferritin expression; assay type: cell-based, human; conditions: OMM1.3 and MP46 cells; AM23 100 nM or salinomycin 0.5 mM for 48 h; immunoblot
Description: FIG. 5: Effect of AM23 or salinomycin on ferritin expression. OMM1.3 and MP46 human uveal melanoma cells were left untreated (UNT) or were treated with DMSO (Ctl), AM23 (100 nM) or salinomycin (0.5 mM) for 48 h. Cell lysates were analysed by immunoblot with antibodies to ferritin. Actin was used as a loading control.
Briefly, uveal melanoma cell lysates (50 μg) were separated using SDS-PAGE, transferred onto a PVDF membrane and subsequently exposed to the appropriate antibodies, anti-ferritin (#sc376594, 1/1,000) and anti-actin (sc47778, 1/1,000) from Santa Cruz Biotechnology. The proteins were visualized using the ECL system (Amersham). The western blots shown are representative of at least 3 independent experiments.

[5] = tested on: PLX-resistant metastatic cutaneous melanoma cells; assay: Cell count of PLX-sensitive and resistant cutaneous melanoma cells; assay type: cell-based; set-up: dose or concentration left out as unconfirmed; conditions: increasing concentrations of AM23 or AM5 in presence or absence of PLX; cells counted after 72 h; FIG. 1
Description: PLX-sensitve and resistant cutaneous melanoma cells, seeded at 150,000 cells/well in 6-well dishes, were treated with increasing concentrations of AM23 or AM5 in presence or absence of PLX ([…]). Cells were manually counted after 72 h.
PLX-sensitve and resistant cutaneous melanoma cells were seeded at 150,000 cells/well in 6-well dishes. They were treated with increasing concentrations of AM23 or AM5 in presence or absence of PLX ([…]). Cells were manually counted after 72 h.

[6] = tested on: Uveal melanoma cells (OMM1.3, MM28, MP65 and MP46); assay: Spheroid (melanosphere) formation, 3D-cultures; assay type: cell-based, human; conditions: AM23 100 nM (or 1 mM); low attachment plates; pictures after 8 days
Description: Uveal melanoma cells (OMM1.3, MM28, MP65 and MP46) were seeded at 5000 cells/well in 6-well low attachment plates and were left untreated (0) or were treated with DMSO (Ctl) or AM23 (100 nM or 1 mM) 24 hours later. Representative pictures taken after 8 days are shown.
Uveal melanoma cells were seeded at a density of 5,000 cells per well and grown in MEF medium (R&D systems, #AR005) supplemented with 4 ng/ml FGF2 in low adherence plates. The following day, wells were supplemented with ironomycin (100 nM or 1 mM). Photographs were taken using a phase contrast microscope (EVOS XL Core Imaging System).

Row | SMILES | uveal melanoma cell proliferation/survival (FIG. 7) [1] | ability of uveal melanoma cells to form colonies [2] | proliferation/survival of uveal melanoma cells in 2D-cultures [3] | proliferation/survival of uveal melanoma cells in 2D-cultures ([3]; listed as Sal) | Fe (ii) / iron accumulation in lysosomes (RhoNox-M fluorescence) [4] | Fe (ii) / iron accumulation in lysosomes (RhoNox-M fluorescence) ([4]; listed as Sal) | ferritin expression (ferritin) | resensitization of PLX-resistant cells to PLX effects (cell count) [5] | melanosphere formation / cell survival in 3D-cultures [6]
1 | C#CCN[C@@H]1C=C[C@]2(O[C@H]([C@@H](CC)C(=O)[C@@H](C)[C@@H](O)[C@H](C)C3O[C@@H](C(CC)C(=O)O)CC[C@@H]3C)[C@@H](C)C[C@H]2C)O[C@@]12CC[C@@](C)([C@H]1CC[C@](O)(CC)[C@H](C)O1)O2 (stereo partly shown) [AM5] | decreases uveal melanoma cell proliferation/survival, yet with a little bit lower efficacy than AM23 |  |  |  |  |  |  |  | 
2 | CC[C@@H](C(=O)O)C1CC[C@H](C)[C@H]([C@@H](C)[C@H](O)[C@H](C)C(=O)[C@H](CC)[C@H]2OC3(C=C[C@@H](O)C4(CC[C@@](C)([C@H]5CC[C@](O)(CC)[C@H](C)O5)O4)O3)[C@H](C)C[C@@H]2C)O1 (stereo in doubt) [Salinomycin, (2R)-2-[(5S,6R)-6-[(1S,2S,3S,5R)-5-[(2S,5R,7S,9S,10S, 12R, 15R)-2-[(2R,5R,6S)-5-ethyl-5-hydroxy-6-methyl-2-tetrahydropyranyl]-15-hydroxy-2,10,12-trimethyl-1,6,8-trioxadispiro[4.1.57.35]pentadec-13-en-9-yl]-2-hydroxy-1,3-dimethyl-4-oxoheptyl]-5-methyl-2-tetrahydropyranyl]butanoic acid, reference compound] |  | strong reduction | induces uveal melanoma cell death | reduced proliferation/survival | induces Fe (ii) in lysosomes | exhibited fluorescent RhoNox-M-positive vesicles | strongly reduced |  | 
3 | C#CCN[C@@H]1C=C[C@]2(O[C@H]([C@@H](CC)C(=O)[C@@H](C)[C@@H](O)[C@H](C)[C@@H]3O[C@@H]([C@@H](CC)C(=O)O)CC[C@@H]3C)[C@@H](C)C[C@H]2C)O[C@@]12CC[C@@](C)([C@H]1CC[C@](O)(CC)[C@H](C)O1)O2 [AM23, (2R)-2-[(2R,5S,6R)-6-{(2S,3S,4S,6R)-6-[(2S,5S,7R,9S,10S,12R,15R)-2-[(2R,5R,6S)-5-Ethyl-5-hydroxy-6-methyltetrahydro-2H-pyran-2-yl]-2, 10,12-trimethyl-15-(2-propyn-1-ylamino)-1,6,8-trioxadispiro[4.1.5.3]pentadec-13-en-9-yl]-3-hydroxy-4-methyl-5-oxo-2-octanyl}-5-methyltetrahydro-2H-pyran-2-yl]butanoic acid] |  | strong reduction | induces uveal melanoma cell death; also recorded: reduced proliferation/survival |  | induces Fe (ii) in lysosomes; also recorded: exhibited fluorescent RhoNox-M-positive vesicles |  | strongly reduced | resensitizes PLX-resistant metastatic cutaneous melanoma cells to PLX effects | prevents melanosphere formation; also recorded: almost complete disappearance of melanospheres
